The target of experiment [1] is Acetylcholinesterase (Electrophorus electricus) (UniProt O42275). The experiment is described as follows: Inhibition of electric eel AChE at 10 uM by Ellman's method relative to control.
For experiment [2], the system named is Butyrylcholinesterase (Rattus norvegicus). The experiment is described as follows: Inhibition of rat serum BuChE at 10 uM by Ellman's method relative to control.
Experiment [3] can be described thus: Antioxidant activity of compound assessed as trolox equivalent of ORAC radical scavenging activity by ORAC-FL assay. It counts as functional.
In experiment [4] the target is Amyloid-beta precursor protein (Homo sapiens) (UniProt P05067). The experiment in a line: Inhibition of self-induced amyloid beta (1 to 42) (unknown origin) disaggregation by Thioflavin T based fluorometric assay relative to control. Further details: concentration or dose not given beside the values. Conditions: concentration not given here.
Experiment [5] has the same target. The experiment is described as follows: Inhibition of self-induced amyloid beta (1 to 42) (unknown origin) aggregation by Thioflavin T based fluorometric assay relative to control. Further details: concentration or dose not given beside the values. Conditions: concentration not given here.
The next experiment addresses Acetylcholinesterase (Electrophorus electricus, UniProt O42275). The experiment is described as follows: Inhibition of electric eel AChE by Ellman's method. Conditions: read-out: IC50.
A short description of experiment [6]: Inhibition of rat serum BuChE by Ellman's method.

Chain of Acetylcholinesterase (Electrophorus electricus) (O42275 24-633 limits assumed): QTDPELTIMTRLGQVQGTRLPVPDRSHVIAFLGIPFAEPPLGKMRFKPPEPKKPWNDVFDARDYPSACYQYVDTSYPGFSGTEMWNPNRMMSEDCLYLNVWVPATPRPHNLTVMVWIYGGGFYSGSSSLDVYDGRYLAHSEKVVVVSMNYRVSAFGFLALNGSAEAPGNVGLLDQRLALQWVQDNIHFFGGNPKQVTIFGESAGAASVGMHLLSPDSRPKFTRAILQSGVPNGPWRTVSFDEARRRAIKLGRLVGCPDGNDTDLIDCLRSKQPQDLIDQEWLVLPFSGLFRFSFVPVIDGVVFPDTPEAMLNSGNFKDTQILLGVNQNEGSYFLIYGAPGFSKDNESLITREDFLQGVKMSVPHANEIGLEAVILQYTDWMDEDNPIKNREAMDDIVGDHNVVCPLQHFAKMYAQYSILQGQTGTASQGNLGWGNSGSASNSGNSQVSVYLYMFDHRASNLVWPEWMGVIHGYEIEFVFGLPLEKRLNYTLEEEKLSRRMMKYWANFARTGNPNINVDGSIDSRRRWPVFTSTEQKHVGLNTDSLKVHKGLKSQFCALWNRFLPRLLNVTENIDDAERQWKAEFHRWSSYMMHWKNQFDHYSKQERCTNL
Chain of Amyloid-beta precursor protein (Homo sapiens) (P05067 whole entry): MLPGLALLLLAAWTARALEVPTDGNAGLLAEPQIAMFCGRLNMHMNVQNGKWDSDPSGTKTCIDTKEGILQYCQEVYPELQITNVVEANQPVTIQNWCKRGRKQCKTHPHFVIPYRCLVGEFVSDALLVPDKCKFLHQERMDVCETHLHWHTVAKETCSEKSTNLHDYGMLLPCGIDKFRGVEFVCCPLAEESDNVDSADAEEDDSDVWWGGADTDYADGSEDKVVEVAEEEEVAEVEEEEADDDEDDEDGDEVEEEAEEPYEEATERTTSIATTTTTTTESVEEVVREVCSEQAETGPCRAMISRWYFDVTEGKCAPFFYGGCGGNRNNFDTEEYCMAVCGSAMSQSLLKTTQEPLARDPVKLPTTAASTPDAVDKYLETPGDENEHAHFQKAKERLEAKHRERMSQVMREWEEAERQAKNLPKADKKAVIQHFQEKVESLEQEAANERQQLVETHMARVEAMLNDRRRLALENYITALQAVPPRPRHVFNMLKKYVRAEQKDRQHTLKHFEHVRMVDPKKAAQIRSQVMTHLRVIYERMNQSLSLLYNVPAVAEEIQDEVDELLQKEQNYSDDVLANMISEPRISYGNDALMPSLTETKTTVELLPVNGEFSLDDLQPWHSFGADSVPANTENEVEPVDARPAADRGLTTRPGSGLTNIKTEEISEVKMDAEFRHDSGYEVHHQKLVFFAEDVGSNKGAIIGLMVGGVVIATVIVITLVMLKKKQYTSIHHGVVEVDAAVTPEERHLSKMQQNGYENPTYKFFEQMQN
Chain of Acetylcholinesterase (O42275 whole entry): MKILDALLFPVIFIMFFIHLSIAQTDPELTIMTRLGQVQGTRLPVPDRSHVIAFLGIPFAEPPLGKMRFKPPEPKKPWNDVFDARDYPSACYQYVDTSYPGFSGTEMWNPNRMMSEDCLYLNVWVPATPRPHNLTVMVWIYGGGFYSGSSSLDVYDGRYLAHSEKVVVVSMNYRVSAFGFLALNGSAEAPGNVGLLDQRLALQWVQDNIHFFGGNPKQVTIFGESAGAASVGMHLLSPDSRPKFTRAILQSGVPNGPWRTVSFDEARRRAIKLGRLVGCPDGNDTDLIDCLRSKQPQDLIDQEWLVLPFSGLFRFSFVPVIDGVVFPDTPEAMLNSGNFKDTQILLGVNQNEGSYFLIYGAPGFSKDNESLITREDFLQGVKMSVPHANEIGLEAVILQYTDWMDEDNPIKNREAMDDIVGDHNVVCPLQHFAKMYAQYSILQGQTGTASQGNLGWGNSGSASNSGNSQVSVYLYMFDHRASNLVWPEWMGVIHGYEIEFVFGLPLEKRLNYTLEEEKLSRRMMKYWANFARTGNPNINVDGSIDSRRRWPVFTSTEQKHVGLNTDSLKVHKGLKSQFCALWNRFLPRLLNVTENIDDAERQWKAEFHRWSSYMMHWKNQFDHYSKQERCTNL

Regarding `O=c1ccc(-c2ccccc2O)nn1CCCN1CCOCC1`, the inhibition in experiment [1] was 22.7%; in experiment [2] it was below 5%. Further, the Activity in experiment [3] was 2.82.
As to `CCN(CCCCCCn1nc(-c2cc(OC)ccc2O)ccc1=O)Cc1ccccc1N(C)C`, the inhibition in experiment [4] was 50.5%; in experiment [5] it was 56.4%; in experiment [2], 13.4%. Besides, the Activity in experiment [3] was found to be 1.81. Further, at Acetylcholinesterase, the IC50 was 330 nM.
For `COc1ccccc1CN(C)CCCn1nc(-c2ccccc2O)ccc1=O`, the values for the inhibition in experiment [1] and in experiment [2] were 17.6% and below 5%, respectively. For the same molecule, the Activity in experiment [3] stood at 3.15.
With `CCN(CCCCCCn1nc(-c2cc(NC(C)=O)ccc2O)ccc1=O)Cc1ccccc1OC`, the inhibition amounted to 38.7% in experiment [4], 42.6% in experiment [5] and 8.02% in experiment [2]. Further, the Activity in experiment [3] is 2.06. Moreover, the IC50 at Acetylcholinesterase was 370 nM.
Take `CCN(CCCn1nc(-c2ccccc2O)ccc1=O)Cc1ccccc1N(C)C`: the inhibition was 32.4% in experiment [1], 34.7% in experiment [5] and below 5% in experiment [2]. Besides, in experiment [3], the Activity was found to be 2.3.
As for `CN(CCCn1nc(-c2ccccc2O)ccc1=O)Cc1ccccc1`, the inhibition was 36.7% in experiment [1] and below 5% in experiment [2]. Besides, in experiment [3], the Activity was 1.71.
Take `CCN(CC)CCCn1nc(-c2ccccc2O)ccc1=O`: the inhibition in experiment [1] is 17.4%; in experiment [5] it was 33.7%; in experiment [2], below 5%. Moreover, the Activity in experiment [3] was 2.54.
In the case of `O=c1ccc(-c2ccccc2O)nn1CCCCCCN1CCOCC1`, the inhibition was 16.1% in experiment [1] and below 5% in experiment [2]. Further, in experiment [3], the Activity turned out to be 3.13.
`CCN(CCCn1nc(-c2ccccc2O)ccc1=O)Cc1ccccc1OC`: the inhibition was 15.6% in experiment [1] and below 5% in experiment [2]. Moreover, the Activity in experiment [3] was found to be 2.9.
For `CCN(C)C(=O)Oc1cccc([C@H](C)N(C)C)c1` [RIVASTIGMINE], the IC50 in experiment [6] was 2800 nM.
